How the values were obtained:
[1] = molecular target: T1, KV7.2-W236L (Homo sapiens, UniProt O43526, W236L); test: Two-electrode voltage-clamp of mutant KV7.2-W236L in Xenopus laevis oocytes; assay type: cell-based
T1 construct: expressed in transfected cells; host or cells: Xenopus laevis oocytes injected with cRNA (pGEM-HE vector)
Description: (§1) Point mutations were introduced using mutated oligonucleotide extension (PfuTurbo Polymerase, Stratagene, La Jolla, CA, USA) from a plasmid template harboring the cDNA of interest, digested with DpnI (Fermentas, St. Leon-Roth, Germany) and transformed into E.coli XL1 Blue cells. The construct was verified by complete DNA sequencing of the cDNA insert. cRNA was prepared from linearized human wild-type (WT) and mutant KV7 channels in the pGEM-HE vector using the T7 m-Message Machine kit (Ambion, Austin, TX, USA) according to the manufacturer's instructions.
(§2) Extraction of Xenopus laevis oocytes and injection of cRNA was performed as described previously. Oocytes were kept in Modified Barth's Saline (in mM: 88 NaCl, 1 KCl, 2.4 NaHCO3, 0.41 CaCl2, 0.82 MgSO4, 0.3 Ca(NO3)2, 15 HEPES, pH 7.4 supplemented with 100 U/mL penicillin and 100 µg/mL streptomycin) at 18°C, and currents were recorded after 2-7 days. The care of Xenopus laevis and the oocyte extraction procedure were performed according to national guidelines and approved by the Danish Animal Experiments Inspectorate.
(§3) KV7 currents in Xenopus laevis oocytes were recorded using two-electrode voltage-clamp at room temperature in Ringer buffer (in mM: 115 NaCl, 2.5 KCl, 1.8 CaCl2, 0.1 MgCl2, 10 HEPES, pH 7.4) as described previously. Data was acquired using pCLAMP 10.2 software (Molecular Devices, CA, USA) and analyzed using pCLAMP 10.2 and GraphPad Prism 4.0 (GraphPad Software Inc., CA, USA). Currents were elicited from a holding potential of −80 mV by 5 s steps to potentials between −100 and +50 mV in 10 mV increments, followed by a 2 s step to −120 mV.
(§4) SMB-1 was dissolved in dimethyl sulfoxide (DMSO) to obtain a concentrated stock solution. On the day of experiments the stock solution was thawed and diluted in Ringer buffer to the final concentrations. A concentration of 10 µM SMB-1 was used unless indicated otherwise. The final DMSO concentration never exceeded 0.1%.
Current – voltage (I–V) relationship curves were generated by normalizing the steady-state peak current measured at potentials between −100 and +50 mV to the current measured at +50 mV in control recordings and plotting the values against the test potential.
The voltage-dependence of activation was determined from tail current analysis using the current measured immediately after the transient capacitive current after stepping to −120 mV from potentials between −100 mV and +50 mV. Data was normalized to extend from 0–1 and the tail current-voltage relationship was fitted to the Boltzmann equation: [drawing 1] (Equation\;1) where I max is the maximum tail current, I min is the minimum tail current, V0.5 is the potential for half maximal activation and k is the slope factor. A V0.5 was calculated for each individual experiment and statistical significance was estimated by paired two-tailed Student's t-test.
Activation kinetics for KV7.2 and KV7.2-W236L was determined by fitting the traces recorded at potentials between −40 and +40 mV to a double exponential function: [drawing 2] (Equation\;2) where I(t) is the current at time t, Ifast and Islow are the current amplitudes at infinite times, and τfast and τslow are the time constants of the fast and slow components, respectively.
For investigation of deactivation kinetics the tail current traces recorded at −120 mV when stepping from the channels' respective ∼V0.5 were fitted to a single exponential function (Eq. 3).

[2] = Visual inspection of solution in Ringer buffer for precipitation; assay type: physicochemical
Description: as §4
To determine the potency of SMB-1 on KV7.2 the compound was tested at four concentrations (0.4, 2, 10 and 50 µM). […] The current amplitude in percentage of control at +50 mV was plotted against the logarithm of the concentration.

[3] = molecular target: T2, KV7.4-L305V (Homo sapiens, UniProt P56696, L305V); test: Two-electrode voltage-clamp of mutant KV7.4-L305V in Xenopus laevis oocytes; assay type: cell-based; settings: 10 µM SMB-1, +50 mV, n = 6; read-out: current amplitude, % of control
T2 construct: expressed in transfected cells; host or cells: Xenopus laevis oocytes injected with cRNA (pGEM-HE vector)
T2 sequence (P56696 1-695 L305V): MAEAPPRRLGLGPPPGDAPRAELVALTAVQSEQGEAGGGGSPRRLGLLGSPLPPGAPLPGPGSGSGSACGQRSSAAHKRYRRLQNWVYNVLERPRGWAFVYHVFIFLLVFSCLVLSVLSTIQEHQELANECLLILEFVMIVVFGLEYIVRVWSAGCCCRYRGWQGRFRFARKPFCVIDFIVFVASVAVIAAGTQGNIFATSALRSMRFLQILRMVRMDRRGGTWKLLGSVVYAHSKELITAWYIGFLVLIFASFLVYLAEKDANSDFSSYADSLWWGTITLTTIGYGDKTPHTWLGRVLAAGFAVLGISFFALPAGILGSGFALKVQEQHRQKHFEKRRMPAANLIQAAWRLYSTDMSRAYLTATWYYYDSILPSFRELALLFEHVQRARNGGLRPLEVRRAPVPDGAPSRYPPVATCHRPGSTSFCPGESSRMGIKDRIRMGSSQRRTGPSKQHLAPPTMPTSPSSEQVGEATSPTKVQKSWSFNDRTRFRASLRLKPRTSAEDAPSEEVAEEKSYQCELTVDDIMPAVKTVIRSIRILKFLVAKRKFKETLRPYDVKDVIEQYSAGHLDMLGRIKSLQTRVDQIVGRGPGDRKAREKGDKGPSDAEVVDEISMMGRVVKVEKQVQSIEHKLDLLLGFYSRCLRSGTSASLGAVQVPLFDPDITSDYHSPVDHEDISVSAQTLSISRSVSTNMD
Description: as §1
as §2, with “The care of Xenopus laevis and the oocyte extraction procedure were performed according to national guidelines and approved by the Danish Animal Experiments Inspectorate.” left out
as §3, with “Currents were elicited from a holding potential of −80 mV by 5 s steps to potentials between −100 and +50 mV in 10 mV increments, followed by a 2 s step to −120 mV.” left out

[4] = Free fraction by equilibrium dialysis, rat plasma; assay type: in vitro ADME; settings: equilibrium dialysis 37°C 5 h, mean ± S.E.M., n = 3
Description: The bidirectional permeability (Papp) of SMB-1 was examined in an MDCK cell system expressing human MDR1 [ABCB1, P-glycoprotein (P-gp)] as described previously. Permeation of the test compound from apical (A) to basal (B) direction or B to A direction was determined in triplicate over a 150-min incubation at 37°C. The efflux ratio was calculated as the ratio between Papp (B to A) and Papp (A to B). Free fraction of SMB-1 was determined using a standard equilibrium dialysis methodology with freshly isolated rat brain homogenate or plasma. Equilibrium dialysis was performed by incubating at 37°C for 5 h in triplicates.

T1 sequence (O43526 whole entry W236L): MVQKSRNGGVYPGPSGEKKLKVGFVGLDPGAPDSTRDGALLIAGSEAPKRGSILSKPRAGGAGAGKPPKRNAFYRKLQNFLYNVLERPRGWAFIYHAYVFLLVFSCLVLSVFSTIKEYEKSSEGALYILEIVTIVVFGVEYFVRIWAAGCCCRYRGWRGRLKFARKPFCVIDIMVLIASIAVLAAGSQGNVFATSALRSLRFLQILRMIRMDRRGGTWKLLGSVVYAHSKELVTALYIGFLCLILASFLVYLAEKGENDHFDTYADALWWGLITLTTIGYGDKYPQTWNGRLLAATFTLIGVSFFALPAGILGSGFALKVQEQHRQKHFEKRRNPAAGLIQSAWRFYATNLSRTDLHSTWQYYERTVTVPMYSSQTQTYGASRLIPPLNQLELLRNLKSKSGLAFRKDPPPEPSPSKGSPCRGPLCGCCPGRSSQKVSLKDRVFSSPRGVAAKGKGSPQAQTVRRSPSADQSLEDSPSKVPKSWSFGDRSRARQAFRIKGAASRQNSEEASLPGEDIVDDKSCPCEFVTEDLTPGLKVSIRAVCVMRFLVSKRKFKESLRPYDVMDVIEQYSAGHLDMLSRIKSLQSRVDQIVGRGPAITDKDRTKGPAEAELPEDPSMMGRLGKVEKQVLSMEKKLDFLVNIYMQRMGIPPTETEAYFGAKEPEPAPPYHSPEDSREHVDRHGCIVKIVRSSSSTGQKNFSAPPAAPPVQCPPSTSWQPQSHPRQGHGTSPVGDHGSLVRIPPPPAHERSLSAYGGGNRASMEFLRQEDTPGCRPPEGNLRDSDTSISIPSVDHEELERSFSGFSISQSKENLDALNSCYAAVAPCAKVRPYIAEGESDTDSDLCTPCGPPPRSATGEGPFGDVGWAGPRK

effect on τact_fast ([1]; 10 µM): no significant effect
remaining activity at 10 µM ([1]; 10 µM SMB-1, +50 mV, n = 6, read-out: current amplitude, % of control): 68.8 ± 3.9%
effect on τact_slow ([1]; 10 µM, at potentials above −20 mV): significantly increased
τdeact, deactivation time constant in presence of compound ([1]; 10 µM, control 23.3±2.9 ms, n = 6, p<0.05): 27.0 ± 3.0 ms
V0.5, voltage-dependence of activation in presence of compound ([1]; 10 µM, control −27.1±2.4 mV, n = 4, p = 0.2): −15.0±10.1 mV
concentration above which the drug precipitated [2]: above 50 µM
remaining activity at 10 µM [3]: 101 ± 10.3%
fraction unbound at 5 h [4]: 0.006 ± 0.004
SMILES: C[C@@H](c1ccc2c(c1)N(CC1CC1)CCO2)N(C)C(=O)/C=C/c1ccccc1F [SMB-1, (E)-N-[(S)-1-(4-Cyclopropylmethyl-3,4-dihydro-2H-1,4-benzoxazin-6-yl)-ethyl]-3-(2-fluoro-phenyl)-N-methyl-acrylamide]
